Measurements reported in PubChem BioAssay (NCI).
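Tested at 5 concentrations; 48 h exposure; 96-well plates; endpoints linearly interpolated, else capped at highest concentration. TGI: concentration producing complete growth inhibition.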

How the values were obtained:
Assay in all cases: growth of human tumour cells (NCI), 48 h
[1] = system: A498 renal
[2] = system: SK-OV-3 ovarian
[3] = system: A549 NSCLC
[4] = system: NCI-H226 lung
[5] = system: M19-MEL melanoma
[6] = system: XF 498 CNS
[7] = system: OVCAR-3 ovarian
[8] = system: EKVX NSCLC
[9] = system: K-562 leukemia
[10] = system: COLO 205 colon
[11] = system: M14 melanoma
[12] = system: DLD-1 colon
[13] = system: OVCAR-4 ovarian
[14] = system: KM12 colon
[15] = system: HT29 colon
[16] = system: RPMI-8226 leukemia
[17] = system: SF-268 CNS
[18] = system: SNB-19 CNS
[19] = system: SN12C renal
[20] = system: OVCAR-5 ovarian
[21] = system: NCI-H522 lung
[22] = system: HOP-62 NSCLC
[23] = system: DMS 273 small cell lung
[24] = system: TK-10 renal
[25] = system: MALME-3M melanoma
[26] = system: SNB-78 CNS
[27] = system: NCI-H23 lung
[28] = system: HL-60(TB) leukemia
[29] = system: OVCAR-8 ovarian
[30] = system: HCT-116 colon
[31] = system: HCC-2998 colon
[32] = system: MOLT-4 leukemia
[33] = system: LOX IMVI melanoma
[34] = system: RXF-631 renal
[35] = system: IGROV1 ovarian
[36] = system: UACC-257 melanoma
[37] = system: CAKI-1 renal
[38] = system: HCT-15 colon
[39] = system: SK-MEL-2 melanoma
[40] = system: RXF 393 renal
[41] = system: HOP-18 NSCLC
[42] = system: SF-539 CNS
[43] = system: SR leukemia
[44] = system: SW-620 colon
[45] = system: HOP-92 NSCLC
[46] = system: CCRF-CEM leukemia
[47] = system: LXFL 529 NSCLC
[48] = system: SF-295 CNS
[49] = system: 786-0 renal
[50] = system: SK-MEL-28 melanoma
[51] = system: UO-31 renal
[52] = system: NCI-H460 lung
[53] = system: U251 CNS
[54] = system: SNB-75 CNS
[55] = system: SK-MEL-5 melanoma
[56] = system: KM20L2 colon

## CS(=O)(=O)Sc1ccc(Cl)cc1
[1]
  TGI: 7.48 µM
[2]
  TGI: 43.9 µM
[3]
  TGI: 17.5 µM
[4]
  TGI: 20.6 µM
[5]
  TGI: 21.2 µM
[6]
  TGI: 22.7 µM
[7]
  TGI: 19.3 µM
[8]
  TGI: 18.3 µM
[9]
  TGI: 42.6 µM
[10]
  TGI: 12.7 µM
[11]
  TGI: 25.8 µM
[12]
  TGI: 27.2 µM
[13]
  TGI: 29.7 µM
[14]
  TGI: 19.7 µM
[15]
  TGI: 22.6 µM
[16]
  TGI: 41.9 µM
[17]
  TGI: 12.7 µM
[18]
  TGI: 25.1 µM
[19]
  TGI: 16 µM
[20]
  TGI: 31.5 µM
[21]
  TGI: 9.47 µM
[22]
  TGI: 5.29 µM
[23]
  TGI: 17.4 µM
[24]
  TGI: 31.2 µM
[25]
  TGI: 26.6 µM
[26]
  TGI: 15.6 µM
[27]
  TGI: 27.7 µM
[28]
  TGI: 17.5 µM
[29]
  TGI: 21.8 µM
[30]
  TGI: 18.6 µM
[31]
  TGI: 24 µM
[32]
  TGI: 21.7 µM
[33]
  TGI: 11.5 µM
[34]
  TGI: 20 µM
[35]
  TGI: 8 µM
[36]
  TGI: 20.6 µM
[37]
  TGI: 24.4 µM
[38]
  TGI: 22.2 µM
[39]
  TGI: 25.6 µM
[40]
  TGI: 20.8 µM
[41]
  TGI: 55.4 µM
[42]
  TGI: 10.9 µM
[43]
  TGI: 15.7 µM
[44]
  TGI: 25.3 µM
[45]
  TGI: 20 µM
[46]
  TGI: 8.89 µM
[47]
  TGI: 23.3 µM
[48]
  TGI: 9.21 µM
[49]
  TGI: 19.2 µM
[50]
  TGI: 23.9 µM
[51]
  TGI: 13.3 µM
[52]
  TGI: 27.9 µM
[53]
  TGI: 11.5 µM
[54]
  TGI: 12.6 µM
[55]
  TGI: 20.2 µM
[56]
  TGI: 24.3 µM
